Measurements taken from ChEMBL document CHEMBL1177848, “Synthesis of novel 6,6a,7,8-tetrahydro-5H-naphtho[1,2-e]pyrimido[4,5-b][1,4]diazepines under microwave irradiation as potential anti-tumor agents” (2010).
Active and inactive are the calls of the source. No cut-off for these calls is given here.

Key:
PC-3 = experiment: Growth inhibition of human PC3 cells at 1 uM after 48 hrs by sulforhodamine B assay; format: functional, cell-based
SNB-75 = experiment: Growth inhibition of human SNB75 cells at 1 uM after 48 hrs by sulforhodamine B assay; format: functional, cell-based
RXF 393 = experiment: Growth inhibition of human RXF393 cells at 1 uM after 48 hrs by sulforhodamine B assay; format: functional, cell-based
COLO 205 = experiment: Growth inhibition of human COLO205 cells after 48 hrs by sulforhodamine B assay; format: functional; conditions: COLO 205, 48 h
HOP-62 = experiment: Growth inhibition of human HOP62 cells at 1 uM after 48 hrs by sulforhodamine B assay; format: functional, cell-based
MDA-MB-231 = experiment: Growth inhibition of human MDA-MB-231 cells at 1 uM after 48 hrs by sulforhodamine B assay; format: functional, cell-based
SK-MEL-5 [1] = experiment: Growth inhibition of human SK-MEL-5 cells after 48 hrs by sulforhodamine B assay; format: functional; conditions: SK-MEL-5, 48 h
SF-295 [2] = experiment: Growth inhibition of human SF295 cells at 1 uM after 48 hrs by sulforhodamine B assay; format: functional, cell-based
NCI/ADR-RES = experiment: Growth inhibition of human NCI/ADR-RES cells at 1 uM after 48 hrs by sulforhodamine B assay; format: functional, cell-based
Hs-578T = experiment: Growth inhibition of human Hs 578T cells at 1 uM after 48 hrs by sulforhodamine B assay; format: functional, cell-based
SF-295 [3] = experiment: Growth inhibition of human SF295 cells after 48 hrs by sulforhodamine B assay; format: functional; conditions: SF-295, 48 h
OVCAR-4 [4] = experiment: Growth inhibition of human OVCAR4 cells after 48 hrs by sulforhodamine B assay; format: functional; conditions: OVCAR-4, 48 h
NCI-H23 = experiment: Growth inhibition of human NCI-H23 cells after 48 hrs by sulforhodamine B assay; format: functional; conditions: NCI-H23, 48 h
KM12 [5] = experiment: Growth inhibition of human KM12 cells at 1 uM after 48 hrs by sulforhodamine B assay; format: functional, cell-based
T47D = experiment: Growth inhibition of human T47D cells at 1 uM after 48 hrs by sulforhodamine B assay; format: functional, cell-based
KM12 [6] = experiment: Growth inhibition of human KM12 cells after 48 hrs by sulforhodamine B assay; format: functional; conditions: KM12, 48 h
SK-MEL-2 = experiment: Growth inhibition of human SK-MEL-2 cells at 1 uM after 48 hrs by sulforhodamine B assay; format: functional, cell-based
HOP-92 = experiment: Growth inhibition of human HOP92 cells at 1 uM after 48 hrs by sulforhodamine B assay; format: functional, cell-based
HCT-116 = experiment: Growth inhibition of human HCT116 cells after 48 hrs by sulforhodamine B assay; format: functional; conditions: HCT-116, 48 h
MDA-MB-468 = experiment: Growth inhibition of human MDA-MB-468 cells after 48 hrs by sulforhodamine B assay; format: functional; conditions: MDA-MB-468, 48 h
SF530 = experiment: Growth inhibition of human SF530 cells at 1 uM after 48 hrs by sulforhodamine B assay; format: functional, cell-based
OVCAR-4 [7] = experiment: Growth inhibition of human OVCAR4 cells at 1 uM after 48 hrs by sulforhodamine B assay; format: functional, cell-based
SW-620 = experiment: Growth inhibition of human SW620 cells at 1 uM after 48 hrs by sulforhodamine B assay; format: functional, cell-based
OVCAR-8 = experiment: Growth inhibition of human OVCAR8 cells at 1 uM after 48 hrs by sulforhodamine B assay; format: functional, cell-based
TK-10 = experiment: Growth inhibition of human TK10 cells after 48 hrs by sulforhodamine B assay; format: functional; conditions: TK-10, 48 h
NCI-H522 [8] = experiment: Growth inhibition of human NCI-H522 cells at 1 uM after 48 hrs by sulforhodamine B assay; format: functional, cell-based
NCI-H522 [9] = experiment: Growth inhibition of human NCI-H522 cells after 48 hrs by sulforhodamine B assay; format: functional; conditions: NCI-H522, 48 h
RPMI-8226 [10] = experiment: Growth inhibition of human RPMI8226 cells at 1 uM after 48 hrs by sulforhodamine B assay; format: functional, cell-based
UACC-257 [11] = experiment: Growth inhibition of human UACC257 cells after 48 hrs by sulforhodamine B assay; format: functional; conditions: UACC-257, 48 h
SK-MEL-5 [12] = experiment: Growth inhibition of human SK-MEL-5 cells at 1 uM after 48 hrs by sulforhodamine B assay; format: functional, cell-based
SF-539 = experiment: Growth inhibition of human SF539 cells at 1 uM after 48 hrs by sulforhodamine B assay; format: functional, cell-based
OVCAR-3 = experiment: Growth inhibition of human OVCAR-3 cells after 48 hrs by sulforhodamine B assay; format: functional; conditions: OVCAR-3, 48 h
UACC-257 [13] = experiment: Growth inhibition of human UACC257 cells at 1 uM after 48 hrs by sulforhodamine B assay; format: functional, cell-based
LOX IMVI [14] = experiment: Growth inhibition of human LOXIMVI cells at 1 uM after 48 hrs by sulforhodamine B assay; format: functional, cell-based
LOX IMVI [15] = experiment: Growth inhibition of human LOXIMVI cells after 48 hrs by sulforhodamine B assay; format: functional
786-0 = experiment: Growth inhibition of human 786-0 cells at 1 uM after 48 hrs by sulforhodamine B assay; format: functional, cell-based
ACHN = experiment: Growth inhibition of human ACHN cells at 1 uM after 48 hrs by sulforhodamine B assay; format: functional, cell-based
A549 = experiment: Growth inhibition of human A549 cells at 1 uM after 48 hrs by sulforhodamine B assay; format: functional, cell-based
RPMI-8226 [16] = experiment: Growth inhibition of human RPMI8226 cells after 48 hrs by sulforhodamine B assay; format: functional; conditions: RPMI-8226, 48 h
MDA-MB-435 = experiment: Growth inhibition of human MDA-MB-435 cells at 1 uM after 48 hrs by sulforhodamine B assay; format: functional, cell-based
HCT-15 = experiment: Growth inhibition of human HCT15 cells at 1 uM after 48 hrs by sulforhodamine B assay; format: functional, cell-based
SK-MEL-28 = experiment: Growth inhibition of human SK-MEL-28 cells at 1 uM after 48 hrs by sulforhodamine B assay; format: functional, cell-based
NCI-H460 = experiment: Growth inhibition of human NCI-H460 cells at 1 uM after 48 hrs by sulforhodamine B assay; format: functional, cell-based
UACC-62 [17] = experiment: Growth inhibition of human UACC62 cells after 48 hrs by sulforhodamine B assay; format: functional; conditions: UACC-62, 48 h
UACC-62 [18] = experiment: Growth inhibition of human UACC62 cells at 1 uM after 48 hrs by sulforhodamine B assay; format: functional, cell-based
DU-145 = experiment: Growth inhibition of human DU145 cells at 1 uM after 48 hrs by sulforhodamine B assay; format: functional, cell-based
MCF7 = experiment: Growth inhibition of human MCF7 cells at 1 uM after 48 hrs by sulforhodamine B assay; format: functional, cell-based
[19] = read-out: LC50 (the source's name)

In the case of `Nc1nc(N)c2c(n1)NC(c1ccc(F)cc1)C1CCc3ccccc3C1=N2` (configuration not stated), the “growth inhibition (GI)” value (PC-3) is reported as “inactive”, the “growth inhibition (GI)” value (SNB-75) is reported as “inactive” and the “growth inhibition (GI)” value (RXF 393) is reported as “inactive”. For the same compound, the GI50 (COLO 205) was 1620 nM, the LC50 (50% lethal concentration) (COLO 205) was 80.7 µM and the “growth inhibition (GI)” value (HOP-62) was “inactive”. For the same compound, the “growth inhibition (GI)” value (MDA-MB-231) was “inactive”, the GI50 (SK-MEL-5 [1]) was 609 nM and the LC50 (SK-MEL-5 [1]) was 6.03 µM. For the same compound, the “growth inhibition (GI)” value (SF-295 [2]) was “inactive”, the “growth inhibition (GI)” value (NCI/ADR-RES) was “inactive” and the “growth inhibition (GI)” value (Hs-578T) was “inactive”. The GI50 (SF-295 [3]) was 8.64 µM, the LC50 (50% lethal concentration) (SF-295 [3]) was 59.7 µM and the GI50 (OVCAR-4 [4]) was 3.98 µM. It also gave an LC50 (50% lethal concentration) (OVCAR-4 [4]) of 50.2 µM, a GI50 (NCI-H23) of 4.06 µM and an LC50 (NCI-H23) of 46.4 µM. The “growth inhibition (GI)” value (KM12 [5]) was “inactive”, the “growth inhibition (GI)” value (T47D) was “inactive” and the GI50 (KM12 [6]) was 4.93 µM. The LC50 (concentration killing 50% of cells) (KM12 [6]) was 43.1 µM, the “growth inhibition (GI)” value (SK-MEL-2) was “inactive” and the “growth inhibition (GI)” value (HOP-92) was “inactive”. The GI50 (HCT-116) was 3.04 µM, the LC50 (HCT-116) was 34.5 µM and the GI50 (MDA-MB-468) was 1430 nM. The CC50 (MDA-MB-468; [19]) was 33 µM, the “growth inhibition (GI)” value (SF530) was “inactive” and the “growth inhibition (GI)” value (OVCAR-4 [7]) was “inactive”. The “growth inhibition (GI)” value (SW-620) was “inactive”, the “growth inhibition (GI)” value (OVCAR-8) was “inactive” and the GI50 (TK-10) was 3.63 µM. The LC50 (50% lethal concentration) (TK-10) was 50.9 µM, the “growth inhibition (GI)” value (NCI-H522 [8]) was “inactive” and the GI50 (NCI-H522 [9]) was 5.66 µM. For the same compound, the LC50 (NCI-H522 [9]) was 58 µM, the “growth inhibition (GI)” value (RPMI-8226 [10]) was “inactive” and the GI50 (UACC-257 [11]) was 5.37 µM. For the same compound, the CC50 (UACC-257 [11]; [19]) was 43.3 µM, the “growth inhibition (GI)” value (SK-MEL-5 [12]) was “inactive” and the “growth inhibition (GI)” value (SF-539) was “inactive”. The GI50 (OVCAR-3) was 4.15 µM, the LC50 (lethal concentration, 50% cell kill) (OVCAR-3) was 43.2 µM and the “growth inhibition (GI)” value (UACC-257 [13]) was “inactive”. For the same compound, the “growth inhibition (GI)” value (LOX IMVI [14]) was “inactive”, the GI50 (LOX IMVI [15]) was 3.98 µM and the LC50 (LOX IMVI [15]) was 43 µM. For the same compound, the “growth inhibition (GI)” value (786-0) was “inactive”, the “growth inhibition (GI)” value (ACHN) was “inactive” and the “growth inhibition (GI)” value (A549) was “inactive”. The GI50 (RPMI-8226 [16]) was 1810 nM, the LC50 (RPMI-8226 [16]) was 62.8 µM and the “growth inhibition (GI)” value (MDA-MB-435) was “inactive”. The “growth inhibition (GI)” value (HCT-15) was “inactive”, the “growth inhibition (GI)” value (SK-MEL-28) was “inactive” and the “growth inhibition (GI)” value (NCI-H460) was “inactive”. For the same compound, the GI50 (UACC-62 [17]) was 3.76 µM, the LC50 (UACC-62 [17]) was 42.1 µM and the “growth inhibition (GI)” value (UACC-62 [18]) was “inactive”. The “growth inhibition (GI)” value (DU-145) was “inactive” and the “growth inhibition (GI)” value (MCF7) was “inactive”.
